Results on 17 compounds are retold here after patent publication US20240182481A1 (Tango Therapeutics, Inc., priority 2021, published 2024).

One experiment has as its target USP1-UAF1 (Homo sapiens, UniProt O94782). The experiment in a line: Ubiquitin Rhodamine assay for USP1-UAF1 activity. Type of experiment: biochemical. The method, then: Certain compounds of the disclosure were assessed for USP1-UAF1 activity in a Ubiquitin Rhodamine assay as described in Example 135.
The subject of experiment [1] is MDA-MB-436 (BRCA1 mutant) cell line. Kind of experiment: Viability assay in BRCA1 mutant cell line MDA-MB-436. Type of experiment: cell-based. To be noted: Homo sapiens, MDA-MB-436, viability, BRCA1 mutant MDA-MB-436; read-out: MDA-MB-436 rel IC50. From the text: (§1) Table 1 also indicates IC50 values in a viability assay for a non-isogenic pair of BRCA1 mutant (column 5—MDA-MB-436) and BRCA1 WT (column 6—HCC1954) cell lines. These values indicate the effect of treatment with compound on cell survival.

In experiment [2] the test system is HCC1954 (BRCA1 WT) cell line. The experiment in a line: Viability assay in BRCA1 WT cell line HCC1954. Type of experiment: cell-based. To be noted: Homo sapiens, read-out: HCC 1954 IC50 rel IC50.
Source text: as §1

The next experiment deals with monoubiquitinated PCNA. The experiment in a line: AlphaLISA assay measuring monoubiquitinated PCNA in MDA-MB-436. The experiment is classed as cell-based. As to conditions: Homo sapiens, read-out: Alpha LISA IC50. From the text:
Table 1 also indicates IC50 values for exemplary compounds in an AlphaLISA assay measuring monoubiquitinated PCNA in a BRCA1 mutant cell line (MDA-MB-436; column 7).
On the technique in general: Bead proximity is the source of the signal in Alpha formats.

As a reminder, the IC50 is the concentration that inhibits the measured activity by half.

Molecules are shown by their SMILES.

Sequence of USP1-UAF1 (O94782 whole entry): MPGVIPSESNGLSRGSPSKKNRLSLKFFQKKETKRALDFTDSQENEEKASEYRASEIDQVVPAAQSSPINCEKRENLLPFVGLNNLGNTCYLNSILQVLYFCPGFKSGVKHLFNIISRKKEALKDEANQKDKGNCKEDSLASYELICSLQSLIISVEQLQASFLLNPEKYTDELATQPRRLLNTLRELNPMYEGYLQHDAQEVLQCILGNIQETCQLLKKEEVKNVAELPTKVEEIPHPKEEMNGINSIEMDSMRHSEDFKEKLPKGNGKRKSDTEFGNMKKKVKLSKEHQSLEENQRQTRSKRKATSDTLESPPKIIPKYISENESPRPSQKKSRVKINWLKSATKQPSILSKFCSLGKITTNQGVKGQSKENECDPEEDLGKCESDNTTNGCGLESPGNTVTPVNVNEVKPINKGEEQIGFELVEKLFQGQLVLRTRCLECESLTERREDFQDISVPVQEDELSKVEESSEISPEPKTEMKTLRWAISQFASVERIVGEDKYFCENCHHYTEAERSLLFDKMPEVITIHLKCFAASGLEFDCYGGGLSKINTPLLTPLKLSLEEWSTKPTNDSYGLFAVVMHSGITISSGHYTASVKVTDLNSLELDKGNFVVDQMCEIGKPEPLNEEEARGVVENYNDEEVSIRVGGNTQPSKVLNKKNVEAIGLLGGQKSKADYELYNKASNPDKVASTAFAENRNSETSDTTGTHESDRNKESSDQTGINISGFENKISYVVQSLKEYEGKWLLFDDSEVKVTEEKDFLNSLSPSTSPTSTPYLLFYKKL
Sequence of USP1-UAF1 (Q8TAF3 whole entry partner): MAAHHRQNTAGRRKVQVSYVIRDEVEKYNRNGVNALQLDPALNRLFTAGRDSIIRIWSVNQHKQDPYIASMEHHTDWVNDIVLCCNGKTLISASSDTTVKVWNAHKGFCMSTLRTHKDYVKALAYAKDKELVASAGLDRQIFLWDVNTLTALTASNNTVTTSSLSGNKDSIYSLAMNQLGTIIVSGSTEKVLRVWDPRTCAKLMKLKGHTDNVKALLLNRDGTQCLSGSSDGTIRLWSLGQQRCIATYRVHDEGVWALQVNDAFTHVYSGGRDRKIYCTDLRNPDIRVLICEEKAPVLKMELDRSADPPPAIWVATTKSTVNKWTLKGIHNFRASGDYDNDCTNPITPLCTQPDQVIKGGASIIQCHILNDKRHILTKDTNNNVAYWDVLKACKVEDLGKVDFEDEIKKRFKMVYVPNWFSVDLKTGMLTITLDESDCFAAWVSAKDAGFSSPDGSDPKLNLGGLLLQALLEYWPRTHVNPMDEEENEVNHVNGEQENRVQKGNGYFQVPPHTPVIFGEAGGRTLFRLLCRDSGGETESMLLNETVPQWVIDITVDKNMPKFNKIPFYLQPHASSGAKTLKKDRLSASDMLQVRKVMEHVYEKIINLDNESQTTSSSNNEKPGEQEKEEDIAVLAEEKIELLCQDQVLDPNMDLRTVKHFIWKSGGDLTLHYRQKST

Take `CC(C)n1cc(C(F)(F)F)nc1-c1ccc(Cc2c[nH]c3cnc(-c4cccnc4OC(F)F)nc23)cc1` [Compound 28, 2-[2-(difluoromethoxy)-3-pyridyl]-7-[[4-[1-isopropyl-4-(trifluoromethyl)imidazol-2-yl]phenyl]methyl]-5H-pyrrolo[3,2-d]pyrimidine]: the half-inhibitory concentration (IC50) against USP1-UAF1 is 30 to 100 nM; in experiment [1], below 100 nM; in experiment [2], at least 10000 nM; in the experiment on monoubiquitinated PCNA it was 100 to 250 nM.
On to `COc1ncnc(C2CC2(F)F)c1-c1ncc2[nH]nc(Cc3ccc(-c4nc(C(F)(F)F)cn4C)cc3)c2n1` (centres unmarked) [Compound 172, 5-[4-(2,2-difluorocyclopropyl)-6-methoxy-pyrimidin-5-yl]-3-[[4-[1-methyl-4-(trifluoromethyl)imidazol-2-yl]phenyl]methyl]-1H-pyrazolo[4,3-d]pyrimidine], for which the IC50 at USP1-UAF1 was below 30 nM; in experiment [1] it was below 100 nM; in experiment [2], at least 10000 nM; in the experiment on monoubiquitinated PCNA, below 100 nM.
Consider `COc1ncnc(C2CC2)c1-c1ncc2[nH]cc(C(C)c3ccc(-c4nc(C(F)(F)F)cn4C)cc3)c2n1` (single isomer, unassigned) [Compound 89], for which the half-inhibitory concentration (IC50) at USP1-UAF1 was below 30 nM; in experiment [1] it was below 100 nM; in experiment [2], 250 to 10000 nM; with monoubiquitinated PCNA, below 100 nM.
Consider `CC(C)c1ccccc1-c1ncc2[nH]cc(Cc3ccc(-c4nc(C(F)(F)F)cn4C)cc3)c2n1` [Compound 10, 2-(2-isopropylphenyl)-7-[[4-[1-methyl-4-(trifluoromethyl)imidazol-2-yl]phenyl]methyl]-5H-pyrrolo[3,2-d]pyrimidine], for which the half-inhibitory concentration (IC50) against USP1-UAF1 was below 30 nM; in experiment [1], below 100 nM; in experiment [2] it was at least 10000 nM; in the experiment on monoubiquitinated PCNA, below 100 nM.
On to `COc1cccc(OC)c1-c1ncc2[nH]cc(Cc3ccc(-c4nc(C(F)(F)F)cn4C)cc3)c2n1` [Compound 194], for which the concentration for half-maximal inhibition (IC50) was 30 to 100 nM against USP1-UAF1, 100 to 250 nM in experiment [1], at least 10000 nM in experiment [2] and 250 to 10000 nM with monoubiquitinated PCNA.
For `CN(C)c1ncccc1-c1ncc2[nH]cc(Cc3ccc(-c4nc(C(F)(F)F)cn4C)cc3)c2n1` [Compound 29, N,N-dimethyl-3-[7-[[4-[1-methyl-4-(trifluoromethyl)imidazol-2-yl]phenyl]methyl]-5H-pyrrolo[3,2-d]pyrimidin-2-yl]pyridin-2-amine], the IC50 is 100 to 10000 nM at USP1-UAF1, 250 to 10000 nM in experiment [1], at least 10000 nM in experiment [2] and 250 to 10000 nM with monoubiquitinated PCNA.
For the compound `COc1ncnc(OC)c1-c1ncc2[nH]cc(Cc3ccc(-c4nc(C(F)(F)F)cn4C(C)C)cc3)c2n1` [Compound 182], the IC50 is 30 to 100 nM on USP1-UAF1, 100 to 250 nM in experiment [1], at least 10000 nM in experiment [2] and below 100 nM in the experiment on monoubiquitinated PCNA.
For `CCOc1ncnc(C2CC2)c1-c1ncc2[nH]nc(Cc3ccc(-c4nc(C(F)(F)F)cn4C)cc3)c2n1` [Compound 126, 5-(4-cyclopropyl-6-ethoxy-pyrimidin-5-yl)-3-[[4-[1-methyl-4-(trifluoromethyl)imidazol-2-yl]phenyl]methyl]-1H-pyrazolo[4,3-d]pyrimidine], the IC50 was below 30 nM against USP1-UAF1, below 100 nM in experiment [1], 250 to 10000 nM in experiment [2] and below 100 nM with monoubiquitinated PCNA.
In the case of `Cn1cc(C(F)(F)F)nc1-c1ccc(Cc2c[nH]c3cnc(-c4c(OC(F)F)ncnc4C4CC4)nc23)cc1` [Compound 138, 2-[4-cyclopropyl-6-(difluoromethoxy)pyrimidin-5-yl]-7-[[4-[1-methyl-4-(trifluoromethyl)imidazol-2-yl]phenyl]methyl]-5H-pyrrolo[3,2-d]pyrimidine], the IC50 against USP1-UAF1 was below 30 nM; in experiment [1] it was below 100 nM; in experiment [2] it was at least 10000 nM; in the experiment on monoubiquitinated PCNA, below 100 nM.
With `CNCc1[nH]c2cnc(-c3cccnc3C3CC3)nc2c1Cc1ccc(-c2nc(C(F)(F)F)cn2C)cc1` [Compound 178, 1-[2-(2-cyclopropyl-3-pyridyl)-7-[[4-[1-methyl-4-(trifluoromethyl)imidazol-2-yl]phenyl]methyl]-5H-pyrrolo[3,2-d]pyrimidin-6-yl]-N-methyl-methanamine], the concentration for half-maximal inhibition (IC50) is 30 to 100 nM at USP1-UAF1, below 100 nM in experiment [1], 250 to 10000 nM in experiment [2] and below 100 nM in the experiment with monoubiquitinated PCNA.
For the compound `CC(C)Oc1ncnc(C2CC2)c1-c1ncc2[nH]cc(Cc3ccc(-c4nc(C(F)(F)F)cn4C)cc3)c2n1` [Compound 118, 2-(4-cyclopropyl-6-isopropoxy-pyrimidin-5-yl)-7-[[4-[1-methyl-4-(trifluoromethyl)imidazol-2-yl]phenyl]methyl]-5H-pyrrolo[3,2-d]pyrimidine], the IC50 is below 30 nM on USP1-UAF1, below 100 nM in experiment [1], at least 10000 nM in experiment [2] and below 100 nM in the experiment on monoubiquitinated PCNA.
As to `CC(C)c1ccccc1-c1ncc2[nH]nc(Cc3ccc(-c4nc(C(F)(F)F)cn4C)cc3)c2n1` [Compound 27, 5-(2-isopropylphenyl)-3-[[4-[1-methyl-4-(trifluoromethyl)imidazol-2-yl]phenyl]methyl]-1H-pyrazolo[4,3-d]pyrimidine], the IC50 was below 30 nM at USP1-UAF1, below 100 nM in experiment [1], at least 10000 nM in experiment [2] and below 100 nM in the experiment with monoubiquitinated PCNA.
On to `CC(C)c1ccccc1-c1ncc2[nH]cc(C(C)(O)c3ccc(-c4nc(C(F)(F)F)cn4C)cc3)c2n1` (centres unmarked) [Compound 48, 1-[2-(2-isopropylphenyl)-5H-pyrrolo[3,2-d]pyrimidin-7-yl]-1-[4-[1-methyl-4-(trifluoromethyl)imidazol-2-yl]phenyl]ethanol], for which the IC50 at USP1-UAF1 is below 30 nM; in experiment [1] it was below 100 nM; in experiment [2], at least 10000 nM; with monoubiquitinated PCNA it was below 100 nM.
In the case of `COc1ncnc(C2CC2)c1-c1ncc2[nH]cc(Sc3ccc(-c4nc(C(F)(F)F)cn4C)cc3)c2n1` [Compound 180], the half-inhibitory concentration (IC50) against USP1-UAF1 was 100 to 10000 nM; in experiment [1], 100 to 250 nM; in experiment [2] it was at least 10000 nM; with monoubiquitinated PCNA, 100 to 250 nM.
Consider `COc1ncnc(C2CC2)c1-c1ncc2[nH]cc(Cc3ccc(-c4nc(C#N)cn4C)cc3)c2n1` [Compound 31, 2-[4-[[2-(4-cyclopropyl-6-methoxy-pyrimidin-5-yl)-5H-pyrrolo[3,2-d]pyrimidin-7-yl]methyl]phenyl]-1-methyl-imidazole-4-carbonitrile], for which the IC50 is 100 to 10000 nM at USP1-UAF1, 250 to 10000 nM in experiment [1], at least 10000 nM in experiment [2] and 250 to 10000 nM in the experiment with monoubiquitinated PCNA.
Turning to `COc1ncnc(C2CC2)c1-c1ncc2[nH]c(CN)c(Cc3ccc(-c4nc(C(F)(F)F)cn4C)cc3)c2n1` [Compound 119], the concentration for half-maximal inhibition (IC50) against USP1-UAF1 was 100 to 10000 nM; in experiment [1], 100 to 250 nM; in experiment [2], 250 to 10000 nM; with monoubiquitinated PCNA, 250 to 10000 nM.
Regarding `Cn1cc(C(F)(F)F)nc1-c1ccc(Cc2c[nH]c3cnc(-c4cccnc4C4CC4)nc23)cc1` [Compound 60, 2-(2-cyclopropyl-3-pyridyl)-7-[[4-[1-methyl-4-(trifluoromethyl)imidazol-2-yl]phenyl]methyl]-5H-pyrrolo[3,2-d]pyrimidine], the IC50 was below 30 nM on USP1-UAF1, below 100 nM in experiment [1], at least 10000 nM in experiment [2] and below 100 nM in the experiment on monoubiquitinated PCNA.
